# Reference: ChEMBL document CHEMBL4411258, “Novel natural compounds from endophytic fungi with anticancer activity” (Eur J Med Chem, 2018)
# How the values were obtained:
# [1] = Inhibition of RANKL-induced NFkappaB (unknown origin) activation expressed in mouse RAW264.7 cells preincubated for 1 hr followed by RANKL stimulation and measured after 6 hrs by luciferase reporter gene based assay; format: cell-based
# BT-549 = experiment: Cytotoxicity against human BT549 cells after 48 hrs by neutral red dye based assay; format: functional, cell-based; details: BT-549, 48 h
# SK-OV-3 = experiment: Cytotoxicity against human SKOV3 cells after 48 hrs by neutral red dye based assay; format: functional, cell-based; details: SK-OV-3, 48 h
# [2] = Cytotoxicity against human KATO III cells after 72 hrs by MTT assay; format: functional, cell-based
# A549 [3] = experiment: Cytotoxicity against human A549 cells after 72 hrs by MTT assay; format: functional, cell-based; details: A549, 72 h
# Raji = experiment: Cytotoxicity against human Raji cells after 72 hrs by MTT assay; format: functional, cell-based
# HepG2 [4] = experiment: Cytotoxicity against human HepG2 cells after 72 hrs by MTT assay; format: functional, cell-based; details: HepG2, 72 h
# MCF7 [5] = experiment: Cytotoxicity against human MCF7 cells after 72 hrs by MTT assay; format: functional, cell-based; details: MCF7, 72 h
# HL-60 [6] = experiment: Cytotoxicity against human HL60 cells after 72 hrs by MTT assay; format: functional, cell-based; details: HL-60, 72 h
# L5178Y = experiment: Cytotoxicity against mouse L5178Y cells by MTT assay; format: functional, cell-based
# NCI-H187 = experiment: Cytotoxicity against human NCI-H187 cells by resazurin microplate assay; format: functional, cell-based
# Vero = experiment: Cytotoxicity against African green monkey Vero cells by resazurin microplate assay; format: cell-based; details: Chlorocebus sabaeus
# MCF7 [7] = experiment: Cytotoxicity against human MCF7 cells after 48 hrs by sulforhodamine B assay; format: functional, cell-based; details: Homo sapiens, MCF7, 48 h
# HepG2 [8] = experiment: Cytotoxicity against human HepG2 cells after 48 hrs by sulforhodamine B assay; format: functional, cell-based; details: Homo sapiens, HepG2, 48 h
# HL-60 [9] = experiment: Cytotoxicity against human HL60 cells by trypan blue staining based assay; format: functional, cell-based
# A549 [10] = experiment: Cytotoxicity against human A549 cells by MTS assay; format: functional, cell-based
# NCI-H446 = experiment: Cytotoxicity against human NCI-H446 cells by MTS assay; format: functional, cell-based
# HeLa = experiment: Cytotoxicity against human HeLa cells by MTS assay; format: functional, cell-based
# Huh-7 = experiment: Cytotoxicity against human HuH7 cells by MTS assay; format: functional, cell-based
# L02 = experiment: Cytotoxicity against human L02 cells by MTS assay; format: cell-based
# [11] = Cytotoxicity against mouse LM3 cells by MTS assay; format: functional, cell-based
# MCF7 [12] = experiment: Cytotoxicity against human MCF7 cells by MTS assay; format: functional, cell-based
# SW1990 = experiment: Cytotoxicity against human SW1990 cells by MTS assay; format: functional, cell-based
# MCF7 [13] = experiment: Cytotoxicity against human MCF7 cells after 48 hrs by MTT assay; format: functional, cell-based; details: Homo sapiens, MCF7, 48 h; read-out: IC50
# NB-4 = experiment: Cytotoxicity against human NB4 cells after 48 hrs by MTT assay; format: functional, cell-based; details: NB-4, 48 h
# A549 [14] = experiment: Cytotoxicity against human A549 cells after 48 hrs by MTT assay; format: functional, cell-based; details: Homo sapiens, A549, 48 h; read-out: IC50
# SH-SY5Y = experiment: Cytotoxicity against human SH-SY5Y cells after 48 hrs by MTT assay; format: functional, cell-based
# PC-3 = experiment: Cytotoxicity against human PC3 cells after 48 hrs by MTT assay; format: functional, cell-based; details: PC-3, 48 h
# SF-268 = experiment: Cytotoxicity against human SF268 cells after 48 hrs by sulforhodamine B assay; format: functional, cell-based; details: Homo sapiens, SF-268, 48 h
# NCI-H460 = experiment: Cytotoxicity against human NCI-H460 cells after 48 hrs by sulforhodamine B assay; format: functional, cell-based; details: Homo sapiens, NCI-H460, 48 h
smiles,measurement,setting,value
COC(=O)c1cc(O)cc2oc3c(c(=O)c12)[C@@H](OC)O[C@H](C)C3,IC50,[1],30 to 46 µM
C[C@@H](N)C(=O)Nc1ccccc1C(=O)N[C@@H](O)CCS,IC50,BT-549,0.4 µM
same,IC50,SK-OV-3,0.8 µM
COc1cc(O)c2c(=O)cc(C)oc2c1[C@@H](C[C@@H](OC)C(=O)O)OC,IC50,[2],16.8 µM
COc1cc(=O)oc(CO)c1[C@H](O)CO,IC50,A549 [3],1 to 26.8 µg/mL
same,IC50,Raji,1 to 26.8 µg/mL
same,IC50,HepG2 [4],1 to 26.8 µg/mL
same,IC50,MCF7 [5],1 to 26.8 µg/mL
same,IC50,HL-60 [6],1 to 26.8 µg/mL
CC[C@@H](C)C[C@H](/C=C(\C)[C@H](O)[C@H](C)/C=C(\C)[C@H](O)[C@H](C)/C=C/[C@H](O)[C@H](C)/C=C(\C)C=O)CO,IC50,L5178Y,4.1 µM
C/C=C/C(O)[C@@H]1OC(=O)[C@@]2(C)[C@@H]3CC[C@@H](C)C[C@H]3C=C[C@@H]12 (some centres not stated),IC50,NCI-H187,30.5 µg/mL
same,IC50,Vero,24.2 µg/mL
Cc1cc(O)c(C(=O)c2c(C(=O)O)cc(O)c(O)c2O)c(O)c1,IC50,MCF7 [7],70 µM
same,IC50,HepG2 [8],60 µM
COC(=O)[C@@H](C[C@@H](OC)c1c(OC)cc(O)c2c(=O)cc(C)oc12)OC,IC50,[2],21.4 µM
CC(C)=CC/C=C(/C)[C@H]1CC[C@@]2(C)OC3=C(C[C@@H]12)C(=O)CC[C@@H]3O,IC50,HL-60 [9],30.6 µM
C[C@H]1[C@@H](O)CCC(C)(C)[C@@]12CC=C(C(=O)O)CC2,IC50,[2],25.3 µM
COc1cc(=O)oc(CO)c1[C@H](C)O,IC50,A549 [3],1 to 26.8 µg/mL
same,IC50,Raji,1 to 26.8 µg/mL
same,IC50,HepG2 [4],1 to 26.8 µg/mL
same,IC50,MCF7 [5],1 to 26.8 µg/mL
same,IC50,HL-60 [6],1 to 26.8 µg/mL
O=C1CC[C@@H](c2ccc(O)c3c2C(=O)CCC3=O)c2cccc(O)c21,IC50,A549 [10],1 to 20 µM
same,IC50,NCI-H446,1 to 20 µM
same,IC50,HeLa,1 to 20 µM
same,IC50,Huh-7,1 to 20 µM
same,IC50,L02,1 to 20 µM
same,IC50,[11],1 to 20 µM
same,IC50,MCF7 [12],1 to 20 µM
same,IC50,SW1990,1 to 20 µM
COC1=CC(=O)OC2C1[C@H](O)CO[C@H]2O (some centres not stated),IC50,A549 [3],1 to 26.8 µg/mL
same,IC50,Raji,1 to 26.8 µg/mL
same,IC50,HepG2 [4],1 to 26.8 µg/mL
same,IC50,MCF7 [5],1 to 26.8 µg/mL
same,IC50,HL-60 [6],1 to 26.8 µg/mL
CC1=C2C(=C[C@H](O)C(O)=C2O)[C@H](C)[C@@H](C)O1,IC50,A549 [3],23.7 µM
same,IC50,HepG2 [4],35.7 µM
O=C1CC[C@@H](c2ccc(O)c3c2[C@@H](O)CCC3=O)c2cccc(O)c21,IC50,A549 [10],1 to 20 µM
same,IC50,NCI-H446,1 to 20 µM
same,IC50,HeLa,1 to 20 µM
same,IC50,Huh-7,1 to 20 µM
same,IC50,L02,1 to 20 µM
same,IC50,[11],1 to 20 µM
same,IC50,MCF7 [12],1 to 20 µM
same,IC50,SW1990,1 to 20 µM
COc1cc(O)c2c(=O)cc(C)oc2c1[C@H](C[C@@H](OC)C(=O)O)OC,IC50,MCF7 [5],17.7 µM
same,IC50,[2],16 µM
CCC(=O)Cc1c(OC)cc(=O)oc1C,IC50,A549 [3],1 to 26.8 µg/mL
same,IC50,Raji,1 to 26.8 µg/mL
same,IC50,HepG2 [4],1 to 26.8 µg/mL
same,IC50,MCF7 [5],1 to 26.8 µg/mL
same,IC50,HL-60 [6],1 to 26.8 µg/mL
CO[C@@H]1CCC(=O)c2c([C@@H]3CCC(=O)c4c(O)cccc43)ccc(O)c21,IC50,A549 [10],1 to 20 µM
same,IC50,NCI-H446,1 to 20 µM
same,IC50,HeLa,1 to 20 µM
same,IC50,Huh-7,1 to 20 µM
same,IC50,L02,1 to 20 µM
same,IC50,[11],1 to 20 µM
same,IC50,MCF7 [12],1 to 20 µM
same,IC50,SW1990,1 to 20 µM
O=C1C[C@@H](O)[C@]2(Oc3cccc4c(O)ccc(c34)O2)c2c(O)ccc(O)c21,IC50,HL-60 [9],2.39 µM
C=C(CO)C(=O)CCC(C)C1=CC[C@@]2(C)OC3=C(C[C@@H]12)C(=O)[C@@H](O)CC3 (some centres not stated),IC50,HL-60 [9],4.81 µM
CN1C(=O)[C@]23O[C@]4(O)[C@@H](O)C(=O)N5C(C)(C)[C@H](Cc6cccc1c62)[C@H]3[C@@]54O,IC50,MCF7 [13],1.2 to 4.2 µM
same,IC50,NB-4,1.2 to 4.2 µM
same,IC50,A549 [14],1.2 to 4.2 µM
same,IC50,SH-SY5Y,1.2 to 4.2 µM
same,IC50,PC-3,1.2 to 4.2 µM
C=C(CC[C@@H](C)[C@H]1CC=C2C3=C([C@@H](O)[C@H](OC(C)=O)[C@@]21C)[C@@]1(C)C[C@@H](O)[C@H](OC(=O)CCCCCCCCCO)C(C)(C)[C@@H]1CC3)C(C)C,IC50,BT-549,1.76 µg/mL
same,IC50,SK-OV-3,0.12 µg/mL
C/C=C(\C)C(=O)[C@@H](C)c1cc(O)c2c(c1O)O[C@]1(C)CC[C@H]3O[C@@H](C(C)(C)O)CC[C@]3(C)[C@H]1C2=O,IC50,SF-268,6.4 to 42.6 µM
same,IC50,MCF7 [7],6.4 to 42.6 µM
same,IC50,NCI-H460,6.4 to 42.6 µM
same,IC50,HepG2 [8],6.4 to 42.6 µM
CC[C@H](C)C(=O)[C@@H](C)c1c(O)c2c(c3c1SCC(=O)N3)[C@@H](O)[C@@H]1[C@@]3(C)CC[C@H](C(C)(C)O)O[C@@H]3CC[C@@]1(C)O2,IC50,SF-268,6.4 to 42.6 µM
same,IC50,MCF7 [7],6.4 to 42.6 µM
same,IC50,NCI-H460,6.4 to 42.6 µM
same,IC50,HepG2 [8],6.4 to 42.6 µM
